Data set [1] relates to E. coli ATCC25922. Nature of the data set: MIC determination on E. coli ATCC25922 (microdilution, resazurin). The data set is classed as cell-based, Escherichia coli. The conditions noted are these: value outside parentheses, read-out: E. coli ATCC25922 MIC. A general note: In broth dilution the organism is exposed to a series of concentrations in liquid medium.
Data set [2] relates to Mycobacterium tuberculosis H37Rv. Nature of the data set: MIC determination for Mycobacterium tuberculosis H37Rv (REMA). In kind it is cell-based. The conditions noted are these: Mycobacterium tuberculosis, H37RV.
For data set [3], the system named is S. aureus ATCC25923. Nature of the data set: MIC determination on S. aureus ATCC25923 (microdilution, resazurin). The data set is classed as cell-based, Staphylococcus aureus. The note with it: value outside parentheses, read-out: S. aureus ATCC25923 MIC.
The subject of data set [4] is S. aureus ATCC29213. The data set is described as follows: MIC determination on S. aureus ATCC29213. The conditions noted are these: value in parentheses. In kind it is cell-based, Staphylococcus aureus.
The test system of data set [5] is L. donovani intramacrophage amastigotes. The data set is described as follows: In vitro antileishmanial evaluation on intramacrophage amastigotes (RAW 264.7 infected, SYBR Green). The data set is classed as cell-based, Leishmania donovani. As to the method: In vitro antileishmanial evaluation on intramacrophage amastigotes. RAW 264.7 macrophages were infected with L. donovani axenic amastigotes according to a ratio of 10 parasites per macrophage. […] The in vitro treatment was applied 24 h post-infection, and the treatment duration was 48 h. […] The activity of the compounds is expressed as IC50, calculated using the ICEstimator version 1.2 software. Miltefosine was used as the reference drug.

Data set [6] relates to L. donovani axenic amastigotes (LV9). Nature of the data set: In vitro antileishmanial evaluation on L. donovani axenic amastigotes (SYBR Green). The data set is classed as cell-based, Leishmania donovani. The conditions noted are these: Leishmania donovani; LV9 axenic amastigote forms; read-out: L. donovani Axenic Amastigote IC50 ± SD. On the procedure: L. donovani (MHOM/ET/67/HU3, also called LV9) promastigotes and axenic amastigotes were maintained according to the protocols previously described.
In vitro antileishmanial evaluation on L. donovani axenic amastigotes. This evaluation was performed using the SYBR Green method as previously described. IC50 values were calculated using the ICEstimator version 1.2 software (http://www.antimalarial-icestimator.net/runregression1.2.htm, accessed on 5 April 2023). Miltefosine was used as the reference drug.

In brackets after ≈: the same amount, converted by molar mass. Like-named read-outs stand apart in the source and are kept apart here.

As usually defined, the MIC is the least concentration at which growth counts as inhibited. A word on the melting point: it is the temperature, or range, at which the solid turns liquid. For orientation: IC50 means the concentration that gives 50% inhibition. `O=C(N/N=C/C=C/c1ccc([N+](=O)[O-])o1)c1ccncc1` [Compound 3, N′-[(1E,2E)-3-(5-Nitro-2-furyl)-2-propen-1-ylidene]isonicotinohydrazide] returned a melting point of 252.1 to 254 °C. Further, in data set [1] (Escherichia coli, ATCC25922), the MIC is 28 µM (≈ 8.01 µg/mL). In addition, the MIC in data set [1] amounted to 28 µM (≈ 8.01 µg/mL). Besides, in data set [2] (168 h, REMA, 7 days, read-out: M. tuberculosis H37Rv MIC), the MIC came to 1 µM (≈ 0.286 µg/mL). Moreover, the MIC90 in data set [2] (range for the active compounds, read-out: minimum inhibitory concentration (MIC90) on M. tuberculosis H37Rv) is 0.6 to 7.4 µM (≈ 0.172 to 2.12 µg/mL). Further, the minimal inhibitory concentration (MIC) in data set [3] (Staphylococcus aureus, ATCC25923) amounted to 1.75 µM (≈ 0.501 µg/mL). Moreover, in data set [3], the MIC is 1.75 µM (≈ 0.501 µg/mL). In addition, the MIC in data set [4] (Staphylococcus aureus, ATCC29213) was 7 µM (≈ 2 µg/mL). Moreover, the MIC in data set [4] is 7 µM (≈ 2 µg/mL). The “SI (Selectivity Index)” value in data set [5] (CC50 (macrophage RAW 264.7)/IC50 (intramacrophage form of L. donovani)) is given as greater than 200. For the same compound, the IC50 in data set [5] (Leishmania donovani, RAW264.7, RAW 264.7 macrophages infected, treatment 48 h, read-out: L. donovani Intramacrophage Amastigote IC50 ± SD) stood at 500 ± 100 nM. Moreover, the 50% inhibitory concentration (IC50) in data set [6] came to 600 ± 100 nM.

These data come from publication PMC10343660, “Mechanochemical Studies on Coupling of Hydrazines and Hydrazine Amides with Phenolic and Furanyl Aldehydes—Hydrazones with Antileishmanial and Antibacterial Activities” (Molecules, 2023).
